Molecules are shown by their SMILES.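 Step 1: Grow cells in 96-well plates. Step 2: Expose to compound for 48 hours at 5 concentrations. Step 3: Interpolate endpoints linearly; if unreached, use highest concentration. TGI marks complete inhibition of growth.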

24 compounds from PubChem BioAssay (NCI) can be followed below.

Common to all, as to assay: NCI anticancer screen, dose series, 48 h
Experiment [1] relates to A549 NSCLC.
Experiment [2] has as its system CAKI-1 renal.
Experiment [3] has as its system HS 578T breast.
The subject of experiment [4] is LOX IMVI melanoma.
Experiment [5] has as its system MDA-N.
Experiment [6] deals with NCI-H460 lung.
Experiment [7] deals with SN12C renal.
Experiment [8] concerns SNB-19 CNS.
Experiment [9] deals with TK-10 renal.
The test system of experiment [10] is UACC-257 melanoma.
The subject of experiment [11] is UACC-62 melanoma.
For experiment [12], the system named is UO-31 renal.

On to `C/C(=N\O)c1cccc[n+]1Cc1ccccc1`, for which the TGI in [1], in experiment [2], in experiment [3], in experiment [4], in experiment [5] and in experiment [6] was above 100 µM each time. Also, the TGI in experiment [7], in experiment [8], in [9], in experiment [10], in experiment [11] and in experiment [12] was above 100 µM in each case.

Turning to `COc1ccccc1C(=O)NCC1CCCN2CCCCC12` (configuration not stated), the TGI in experiment [1], in experiment [2], in [3], in experiment [4], in experiment [5] and in experiment [6] was above 100 µM each time. Also, the TGI in [7], in experiment [8], in [9], in experiment [10], in experiment [11] and in experiment [12] was above 100 µM in each case.

Regarding `O=c1[nH]c(NCc2ccc(Cl)cc2)nc2nc[nH]c12`, the TGI in experiment [1], in [2], in [3], in experiment [4], in experiment [5] and in experiment [6] was above 100 µM each time. In addition, the TGI in [7], in [8], in experiment [9], in experiment [10], in experiment [11] and in [12] was above 100 µM each time.

On to `Cc1nc2sc(C(=O)c3ccc(Cl)cc3)c(N)c2c(-c2ccccc2Cl)c1C(=O)Nc1ccccc1`, for which the TGI in experiment [1] was 31.4 µM; in [2], 36.8 µM; in [3], 48.7 µM; in experiment [4], 31.7 µM; in experiment [5], 29.5 µM; in experiment [6], 28.8 µM. In addition, the TGI in experiment [7] was found to be 42.1 µM; in experiment [8] it was 71.2 µM; in experiment [9], 39.3 µM; in [10], 61.8 µM; in [11] it was 29.6 µM; in experiment [12], 51.1 µM.

For the compound `C(#CP(c1ccccc1)c1ccccc1)P(C#CP(c1ccccc1)c1ccccc1)c1ccccc1`, the TGI in experiment [1], in experiment [2], in [3], in experiment [5], in experiment [6] and in [7] was above 100 µM throughout. The TGI in experiment [8], in [9], in [10], in [11] and in [12] was above 100 µM throughout.

`O=C(O)/C=C/c1ccc2c(c1)CC1(Cc3ccccc3C1)C2`: the TGI in experiment [1], in experiment [3], in [4], in experiment [5], in experiment [7] and in [9] was above 100 µM each time. The TGI in experiment [10], in experiment [11] and in experiment [12] was above 100 µM each time.

In the case of `COc1ccc(NCC(=O)Nn2c(-c3ccccc3)nc3ccccc3c2=O)cc1`, the TGI was above 100 µM in experiment [1]; above 100 µM in experiment [3]; 44 µM in [4]; above 100 µM in experiment [5]; above 100 µM in experiment [6]; above 100 µM in [7]. Moreover, the TGI is above 100 µM in experiment [8]; above 100 µM in [9]; above 100 µM in experiment [10]; 32.3 µM in [11]; above 100 µM in experiment [12].

In the case of `CCOC(=O)c1c(SC(=O)c2ccc(OC)cc2)n(-c2ccccc2)c(=S)n(-c2ccccc2)c1=O`, the TGI in [1], in experiment [2], in experiment [3], in experiment [4], in experiment [5] and in experiment [6] was above 100 µM throughout. Besides, the TGI in experiment [7], in experiment [8], in [9], in experiment [10] and in [11] was above 100 µM throughout.

Consider `O=C(Nc1ccc(S(=O)(=O)/N=c2\ncccn2C(=O)C(C(F)(F)F)C(F)(F)F)cc1)C(C(F)(F)F)C(F)(F)F`, for which the TGI is above 100 µM in [1]; 0.242 µM in experiment [2]; above 100 µM in [3]; above 100 µM in [4]; above 100 µM in experiment [5]; above 100 µM in experiment [6]. Also, the TGI in [7], in experiment [8], in experiment [9], in experiment [10] and in experiment [11] was above 100 µM in each case.

Consider `CC1OC2OC3C(OCC(O)C3O)OC(=O)[C@]34CCC(C)(C)CC3C3=CCC5[C@@]6(C)C[C@H](O)[C@H](OC7OC(CO)C(O)C(O)C7OC7OCC(OC(=O)CC(C)(O)CC(=O)OC1C(O)C2O)C(O)C7O)[C@@](C)(CO)C6CC[C@@]5(C)[C@]3(C)CC4` (some centres not stated), for which the TGI in [1] is 10.7 µM; in experiment [3], 21.2 µM; in experiment [4], 21.7 µM; in experiment [5] it was 13.8 µM; in [6], 23.9 µM; in experiment [7] it was 21.1 µM. The TGI came to 21.3 µM in experiment [8]; 19.2 µM in experiment [9]; 6.69 µM in [10]; 14.4 µM in experiment [11]; 18.5 µM in [12].

In the case of `Cc1cc(S(=O)(=O)Nc2n[nH]c(N)n2)c(Cl)cc1Cl`, the TGI in experiment [1], in experiment [2], in experiment [3], in experiment [4], in [5] and in experiment [6] was above 10 µM in each case. The TGI in [7], in experiment [8], in experiment [9], in experiment [10] and in experiment [11] was above 10 µM each time.

Consider `C/C(=N\Nc1nc2ccccc2s1)c1cc2ccccc2cn1`, for which the TGI in experiment [1] was above 100 µM; in [2] it was 17.6 µM; in experiment [4] it was 10.4 µM; in experiment [5], above 100 µM; in experiment [6] it was 33.7 µM; in experiment [7], 30.8 µM. In addition, the TGI in experiment [8] was above 100 µM; in experiment [9] it was above 100 µM; in experiment [10] it was 57.8 µM; in experiment [11], 21.1 µM; in experiment [12], 14.8 µM.

Take `CC(=O)NC1=NC(=O)/C(=C/c2ccc(/C=C3/C(=O)N=C(NC(C)=O)N3C)cc2)N1C`: the TGI in experiment [1], in experiment [2], in experiment [4], in experiment [5], in experiment [6] and in experiment [7] was above 100 µM in each case. Also, the TGI in [8], in experiment [9], in experiment [10], in experiment [11] and in [12] was above 100 µM throughout.

As to `CC(=O)OC1[C@H](OC(C)=O)C2=C(C)[C@@H](OC(C)=O)C[C@@]2(C(C)(C)O)[C@@H](OC(C)=O)[C@H]2[C@@]1(C)[C@@H](OC(C)=O)CC(OC(C)=O)[C@]21CO1` (some centres not stated), the TGI in [1], in experiment [2], in experiment [3], in experiment [4], in experiment [5] and in experiment [7] was above 100 µM each time. For the same compound, the TGI in [8], in [9], in [10], in [11] and in experiment [12] was above 100 µM throughout.

As to `COC(=O)C1(SC)C2CCC3C2CCC31` (configuration not stated), the TGI in experiment [1], in experiment [2], in experiment [3], in experiment [4], in experiment [5] and in experiment [6] was above 100 µM throughout. In addition, the TGI in [7], in experiment [8], in experiment [10] and in experiment [12] was above 100 µM in each case.

Consider `O=c1[nH]c(=O)n(COCc2ccccc2)cc1Nc1ccc(Br)cc1`, for which the TGI in [1], in experiment [2], in experiment [3], in [4], in experiment [5] and in experiment [6] was above 100 µM each time. The TGI in experiment [7], in experiment [8], in experiment [10], in [11] and in experiment [12] was above 100 µM in each case.

Take `Cn1c(=O)c2c(nc3sc4ccccc4c(=O)n32)n(C)c1=O`: the TGI in experiment [2], in [3], in experiment [4], in experiment [5], in experiment [6] and in [7] was above 100 µM in each case. In addition, the TGI in experiment [8], in experiment [9], in [10], in experiment [11] and in experiment [12] was above 100 µM each time.

For `O=C1CN(c2cccc(Cl)c2)C(=O)CN1NCNN1CC(=O)N(c2cccc(Cl)c2)CC1=O`, the TGI in experiment [1], in experiment [2], in [3], in experiment [5], in experiment [6] and in experiment [7] was above 100 µM each time. The TGI in experiment [8], in [9], in [10], in [11] and in experiment [12] was above 100 µM in each case.

`CC(C)(NC(=O)OCc1ccccc1)C(=O)OC(=O)C(C)(C)NC(=O)OCc1ccccc1`: the TGI in [1], in [2], in experiment [3], in experiment [4], in [5] and in experiment [6] was above 100 µM each time. The TGI in experiment [7], in experiment [8], in experiment [11] and in experiment [12] was above 100 µM in each case.

As for `CCCCOC(=O)C1CC[C@H]2[C@@H]3CCc4cc(OC(=O)c5cccc6c(=O)c7ccccc7[nH]c56)ccc4[C@H]3CC[C@]12C` (some centres not stated), the TGI in experiment [1] was 17.6 µM; in experiment [2], 13.7 µM; in [3], 39.7 µM; in [4] it was 17.1 µM; in experiment [5], 14.5 µM; in experiment [7], 15.3 µM. The TGI was found to be 14.7 µM in [9], 15.3 µM in experiment [10], 13.3 µM in [11] and 14.9 µM in [12].

As for `COc1cc2c(cc1OC)C(=O)/C(=C/c1cc(C)cc(C)c1)C2`, the TGI was 18 µM in [1]; above 100 µM in experiment [3]; above 96.8 µM in experiment [4]; 0.0621 µM in [5]; 5.1 µM in experiment [6]; 32.6 µM in experiment [7]. The TGI was above 89.1 µM in experiment [8]; above 100 µM in experiment [9]; above 100 µM in experiment [10]; above 84 µM in experiment [11]; above 100 µM in [12].

`CCCCCCCCCCCCCCCCNc1ccn(C2CC(O)C(COC(c3ccccc3)(c3ccccc3)c3ccc(OC)cc3)O2)c(=O)n1` (configuration not stated): the TGI in experiment [1], in [2], in [3], in [4], in experiment [5] and in experiment [6] was above 100 µM each time. For the same compound, the TGI in experiment [7] is above 100 µM; in experiment [8], above 100 µM; in experiment [9] it was above 100 µM; in experiment [11] it was above 100 µM; in experiment [12] it was 53.8 µM.

Regarding `O=C(O)c1nc2ccc(C(F)(F)F)cc2nc1Nc1ccc(F)cc1`, the TGI in experiment [2] was 78 µM; in [3], 96.4 µM; in experiment [4], 53.3 µM; in experiment [5], 79.6 µM; in experiment [6], 50.9 µM; in [7] it was 85.6 µM. Moreover, the TGI in [9] was above 100 µM; in experiment [10], 78.1 µM; in experiment [11], 27.9 µM; in experiment [12], 24.6 µM.

Turning to `CCN1CCC(CNC(=O)c2ccc(N)cc2)N1CC` (configuration not stated), the TGI in experiment [1], in experiment [2], in experiment [3], in [5], in [6] and in [7] was above 100 µM in each case. In addition, the TGI in [8], in [9], in experiment [10], in experiment [11] and in experiment [12] was above 100 µM in each case.
